Data: patent publication US12435310B2, “Expansion culture method for human-derived natural killer cells by using HDAC inhibitor” (KOREA UNIVERSITY RESEARCH AND BUSINESS FOUNDATION, priority 2018, dated 2025)
Where two headings read alike, the source gives them in different places.

Tests used:
natural killer cells [1] = experiment: CD107a expression and IFN-g secretion of natural killer cells, flow cytometry; format: cell-based, Human
Description: 2.5 μl of FITC-labeled anti-CD107a mAb was added to the cells, and Golgi stop (BD Pharmingen) was added, followed by culture at 37° C. for 5 hours. After completion of culture, PerCPp-labeled CD3 mAb (Biolgend Cat No. 344814 clone SK7) and APC-labeled CD56mAb (Biolegend Cat No. 362504 clone 5.1H11) were added to the cells and allowed to react at 4° C. for 20 minutes. For intracellular FACS, the cells were washed with FACS buffer, fixed, permeabilized using a BD Cytoperm/Cytofix kit (BD Pharmingen, San Diego, CA), stained with PE-labeled IFN-g mAb, and then analyzed by flow cytometry. As a positive control, natural killer cells treated with PMA/ionomycin were used.

natural killer cells [2] = experiment: Cell counting during ex vivo expansion culture of natural killer cells (hematocytometer); format: cell-based, Human
Description: Human blood was collected, and then centrifuged using Ficoll (Ficoll-Paque™ PLUS, GE Healthcare) at 2500 rpm for 30 minutes, and peripheral blood mononuclear cells were isolated from the buffy coat. Thereafter, the isolated cells were co-cultured with the Jurkat cell line (Korea Cell Line Bank) and EBV-LCL cell line (Korea Cell Line Bank) (each cell line was irradiated with 100 Gy) at a peripheral blood mononuclear cell:Jurkat cell:EBV-LCL cell ratio of 1:0.5:0.5 in hRPMI medium (RPMI1640 medium (Corning) containing 10% FBS and 1% penicillin/streptomycin) in the presence of 500 U/ml of IL-2. During culture, the medium was replaced with hRPMI medium containing 500 U/ml of IL-2 once every 3 to 4 days.
In order to confirm the effect of an HDAC inhibitor on natural killer cells, the natural killer cells cultured for […] under the above-described conditions were treated with 125 nM of an HDAC inhibitor (SAHA, Sigma Aldrich, USA) once every 4 days, and the number of the cells was counted (FIG. 1A). At this time, the number of the cells was counted using a hematocytometer once every 4 days while the cells were further cultured for about 12 days, and during culture, the medium was replaced with hRPMI medium containing 500 U/ml of IL-2.

natural killer cells [3] = experiment: Cell proliferation by Ki67 staining, flow cytometry; format: cell-based, Human; details: NK cells expanded 10 days, treated, further cultured 8 days (FIG. 3)
Description: (§1) In the same manner as in Example 1, natural killer cells expanded ex vivo for 10 days were treated with an HDAC inhibitor and further cultured for 8 days. After harvesting the cells, 5×10^5 cells were obtained and apoptosis and proliferation thereof were measured using a flow cytometer.
(§2) To measure apoptosis, cells were harvested and stained with annexin V (2.5 μl) and 7AAD (2 μl) for 15 minutes, and then the proportion of the cells stained with annexin V/7AAD was analyzed using FACS Cantoll (BD). To measure cell proliferation, PerCP-labeled CD3 mAb (Biolgend Cat No. 344814 clone SK7) and APC-labeled CD56 mAb (Biolegend Cat No. 362504 clone 5.1H11) were added to the cells and allowed to react at 4° C. for 20 minutes. For intracellular FACS, the cells were washed with FACS buffer, and analyzed by staining Ki67 in the cell nucleus with the eBioscience Foxp3/transcription factor staining buffer set (eBioscience Cat No. 00-5523-00).

natural killer cells [4] = experiment: Apoptosis by annexin V/7AAD staining, flow cytometry; format: cell-based, Human; details: NK cells expanded 10 days, treated, further cultured 8 days (FIG. 3)
Description: as §1, §2

[5] = tested on: K562 and A375 target cancer cells; experiment: Cancer cell killing ability of natural killer cells, chromium release; format: cell-based, Human; details: K562 and A375 targets, ratio 1:1, 4 hours, versus untreated control (FIG. 4A)
Description: In order to examine whether the cancer cell killing ability of the natural killer cells expanded ex vivo by the method of Example 1 changes, K562 (Korea Cell Line Bank) and A375 (Korea Cell Line Bank) cells were prepared as target cancer cells, labeled with chromium for 1 hour, mixed with natural killer cells at a ratio of 1:1, and then co-cultured 37° C. After 4 hours, the supernatant was taken and the isotope value thereof was analyzed using a gamma counter.

NK cells [6] = details: cited from earlier work
NK cells [7] = details: Ogbomo et al., FEBS Letters 2007; cited from earlier work

In the case of `O=C(CCCCCCC(=O)Nc1ccccc1)NO` [SAHA], the “interferon-gamma secretion of the cells” value (natural killer cells [1]; co-cultured 10 days, then treated) is reported as “did not change”, the “function of the natural killer cells: expression of CD107a and secretion of IFN-g” value (natural killer cells [1]; treated or not treated with the HDAC inhibitor (FIG. 4B)) is reported as “no change” and the “number of cells compared with control group not treated with the HDAC inhibitor” value (natural killer cells [2]; NK cells cultured 6 days, then 125 nM once every 4 days, further culture about 12 days (FIG. 1B)) is reported as “more than double”. The “number of the natural killer cells compared to conventional culture method” value (natural killer cells [2]; PBMC co-cultured with Jurkat and EBV-LCL cells for 10 days, then treated) was “increased”, the “proliferation of the NK cells by concentration” value (natural killer cells [2]; concentration of 62.5 nM (FIG. 2B)) was “the highest” and the number of cells (natural killer cells [2]; treated at an initial stage without being cultured) was “no increase”. The “number of cells by timing of treatment” value (natural killer cells [2]; treated from co-culture day 6 (FIG. 2A)) was “the highest”, the “proliferation of the NK cells (growth curve)” value (natural killer cells [2]; treated on day 0 of culture compared to treated on day 10 of culture (FIG. 1C)) was “decreased” and the “proliferation of the natural killer cells (Ki67)” value (natural killer cells [3]) was “did not change”. For the same molecule, the “proliferation of the natural killer cells (Ki67)” value (natural killer cells [3]; listed as HDAC inhibitor) was “no significant change”, the “apoptosis of the natural killer cells (annexin V/7AAD)” value (natural killer cells [4]) was “inhibited” and the “cancer cell killing ability of the natural killer cells” value [5] was “did not change”.
For `CCCC(CCC)C(=O)O` [valproic acid], the “cancer cell killing ability of the NK cells” value (NK cells [6]; Ogbomo et al., FEBS Letters 2007) is given as “decreases” and the “proliferation of the NK cells” value (NK cells [7]) is given as “decreases”.
In the case of `O=C(CCCCCCC(=O)Nc1ccccc1)NO` [vorinostat], the “cancer cell killing ability of the NK cells” value (NK cells [6]; activated NK cells, Wang et al., Biol Blood Marrow Transplant 2012) is given as “no change”.
